# Results reported in patent publication US11958812B2, “3, 5-disubstituted pyridine and 3, 5-disubstituted pyridazine derivatives and pharmaceutical use of same” (MITSUBISHI TANABE PHARMA CORPORATION, priority 2018, dated 2024).
# Molecular target: human recombinant ATX (Homo sapiens, UniProt Q13822)
# Assay: Enzyme inhibition test (choline release from LPC, Amplex UltraRed fluorescence)
# Type: biochemical
# Details: 200 μM LPC substrate, 1 hr at room temperature, read-out: Experimental Example 1 human ATX IC50
# Protocol: [Enzyme Inhibition Test Method]
# A mixture (10 μL) of substrate and a set of choline quantification reagents (200 μM LPC (1-Oleoyl-sn-glycero-3-phosphocholine Sigma #L1881), 25 μM Amplex UltraRed reagent (Invitrogen), 0.1 U/mL Peroxidase (TOYOBO), 1 U/mL Choline oxidase (TOYOBO)), prepared with assay buffer (50 mM Tris (pH 8.0), 140 mM NaCl, 5 mM KCl, 1 mM CaCl2, 1 mM MgCl2, 0.1% BSA (Albumin from bovine serum, SIGMA), 0.0025% Triton X-100), enzyme (0.4 ng/μL human recombinant ATX) (10 μL), compound-containing solution (100 nL) were dispensed to a 384-well plate, incubated at room temperature for 1 hr and the fluorescence (Ex. 525 nm/Em. 598 nm) was measured. As the standard, choline chloride was used. With a blank free of enzyme was taken as inhibitory rate 100%, and a control free of inhibitor as inhibitory rate 0%, the inhibitory rate was calculated, and IC50 value was calculated from the inhibitory activity percentage at each concentration.
row,IC50 [nM],Compound
1,78,O=C(O)CC[C@H]1CN(c2cncc(OC[C@H]3CC[C@@H](C(F)(F)F)CC3)c2)CCO1 [Example 76]
2,14,O=C(O)c1ccc(C2CCCN2c2cncc(OCc3ccc(OC(F)(F)F)cc3)c2)cc1 (stereo not drawn) [Example 68]
3,8,O=C(O)c1ccc(C2CN(c3cncc(OCc4ccc(OC(F)(F)F)cc4)c3)CCO2)cc1 (stereo not drawn) [Example 42]
4,382,O=C(O)c1cccc2c1CCN2c1cncc(OCc2ccc(OC(F)(F)F)cc2)c1 [Example 38]
5,104,O=C(O)CC[C@H]1CN(c2cncc(OCC3CCCCC3)c2)CCO1 [Example 71]
6,35,"COc1ccc(-c2cnnc(COc3ccc(C(F)(F)F)cc3)c2)cc1[C@@H]1C[C@H]1C(=O)O (relative stereo) [Example 3, trans-2-[2-methoxy-5-(6-{[4-(trifluoromethyl)phenoxy]methyl}pyridazin-4-yl)phenyl]cyclopropanecarboxylic Acid]"
7,31,O=C(O)c1ccc2c(c1)CCCN2c1cncc(OCc2ccc(OC(F)(F)F)cc2)c1 [Example 41]
8,7,O=C(O)c1cncc(C2CN(c3cncc(OC[C@H]4CC[C@H](C(F)(F)F)CC4)c3)CCO2)c1 (stereo partly drawn) [Example 52]
9,5,O=C(O)c1ccnc(C2CN(c3cncc(OC[C@H]4CC[C@H](C(F)(F)F)CC4)c3)CCO2)c1 (stereo partly drawn) [Example 51]
10,7,Cc1nc(C2CN(c3cncc(OC[C@H]4CC[C@H](C(F)(F)F)CC4)c3)CCO2)ccc1C(=O)O (stereo partly drawn) [Example 57]
11,1,O=C(O)c1cncc(C2CN(c3cncc(OCc4ccc(OC(F)(F)F)cc4)c3)CCO2)c1 (stereo not drawn) [Example 64]
12,26,COc1ccc(-c2cncc(OCc3cccc(Cl)c3)c2)cc1C1CC1C(=O)O (stereo not drawn) [Example 32]
13,91,O=C(O)CC[C@H]1CN(c2cncc(OCc3ccc(Cl)cc3)c2)CCO1 [Example 78]
14,56,COc1ccc(-c2cncc(/C=C\c3ccc(OC(F)(F)F)cc3)c2)nc1[C@H]1C[C@@H]1C(=O)O [Example 27]
15,13,O=C(O)c1cccc(C2CCN(c3cncc(OCc4ccc(OC(F)(F)F)cc4)c3)C2)c1 (stereo not drawn) [Example 67]
16,2,CCOc1ccc(-c2cnnc(OCC3CCN(CC(F)(F)F)CC3)c2)cc1[C@H]1C[C@@H]1C(=O)O [Example 30]
17,5,Cc1cc(C2CN(c3cncc(OCc4ccc(OC(F)(F)F)cc4)c3)CCO2)cnc1C(=O)O (stereo not drawn) [Example 66]
18,1,"O=C(O)[C@H]1C[C@@H]1c1cc(-c2cnnc(OC[C@H]3CC[C@H](C(F)(F)F)CC3)c2)ccn1 [Example 10-1, (1S,2S)-2-[4-(6-{[trans-4-(trifluoromethyl)cyclohexyl]methoxy}pyridazin-4-yl)pyridin-2-yl]cyclopropanecarboxylic Acid]"
19,7,Cc1cc(C2CN(c3cncc(OC[C@H]4CC[C@H](C(F)(F)F)CC4)c3)CCO2)ncc1C(=O)O (stereo partly drawn) [Example 56]
20,2,"COc1ccc(-c2cnnc(OC[C@H]3CC[C@H](C(F)(F)F)CC3)c2)nc1[C@@H]1C[C@@]1(C)C(=O)O [Example 7-2, (1R,2R)-2-[3-methoxy-6-(6-{[trans-4-(trifluoromethyl)cyclohexyl]methoxy}pyridazin-4-yl)pyridin-2-yl]-1-methylcyclopropanecarboxylic Acid]"
21,419,O=C(O)C1CN(c2cncc(OCc3ccc(OC(F)(F)F)cc3)c2)CCO1 (stereo not drawn) [Example 90]
22,29,O=C(O)CC[C@H]1CN(c2cncc(OCc3ccc(OC(F)(F)F)c(Cl)c3)c2)CCO1 [Example 85]
23,133,"O=C(O)CC[C@H]1CN(c2cncc(CCc3ccc(OC(F)(F)F)cc3)c2)CCO1 [Example 18-1, 3-[(2S)-4-(5-{2-[4-(trifluoromethoxy)phenyl]ethyl}pyridin-3-yl)morpholin-2-yl]propanoic Acid]"

row,IC50 [nM],Compound
1,129,O=C(O)CC[C@H]1CN(c2cncc(COc3ccc(C(F)(F)F)cc3)c2)CCO1 [Example 86]
2,12,O=C(O)c1ccc2c(c1)OCCN2c1cncc(OCc2ccc(OC(F)(F)F)cc2)c1 [Example 40]
3,121,COc1ccc(-c2cncc(OCc3ccccc3)c2)cc1C1CC1C(=O)O (stereo not drawn) [Example 34]
4,10,"O=C(O)[C@H]1C[C@@H]1c1cc(-c2cncc(OCc3ccc(OC(F)(F)F)cc3)c2)ccn1 [Example 11-1, (1S,2S)-2-(5-{[4-(trifluoromethoxy)benzyl]oxy}-3,4′-bipyridin-2′-yl)cyclopropanecarboxylic Acid]"
5,15,Cc1cnc(C2CN(c3cncc(OC[C@H]4CC[C@H](C(F)(F)F)CC4)c3)CCO2)cc1C(=O)O (stereo partly drawn) [Example 61]
6,2,Cc1cc(C2CN(c3cncc(OC[C@H]4CC[C@H](C(F)(F)F)CC4)c3)CCO2)cnc1C(=O)O (stereo partly drawn) [Example 55]
7,189,O=C(O)CC[C@H]1CN(c2cncc(OCc3cccc(Cl)c3)c2)CCO1 [Example 79]
8,1,"COc1ccc(-c2cnnc(OC[C@H]3CC[C@H](C(F)(F)F)CC3)c2)nc1[C@H]1C[C@]1(C)C(=O)O [Example 7-1, (1S,2S)-2-[3-methoxy-6-(6-{[trans-4-(trifluoromethyl)cyclohexyl]methoxy}pyridazin-4-yl)pyridin-2-yl]-1-methylcyclopropanecarboxylic Acid]"
9,56,"CC(C[C@H]1CN(c2cncc(OCc3ccc(OC(F)(F)F)cc3)c2)CCO1)C(=O)O (stereo partly drawn) [Example 17, 2-methyl-3-[(2S)-4-(5-{[4-(trifluoromethoxy)benzyl]oxy}pyridin-3-yl)morpholin-2-yl]propanoic Acid]"
10,3,O=C(O)c1ccc(C2CN(c3cncc(OC[C@H]4CC[C@H](C(F)(F)F)CC4)c3)CCO2)cn1 (stereo partly drawn) [Example 49]
11,1,O=C(O)c1cc(C2CN(c3cncc(OC[C@H]4CC[C@H](C(F)(F)F)CC4)c3)CCO2)ncc1C(F)(F)F (stereo partly drawn) [Example 62]
12,6,O=C(O)c1ccc2c(c1)CCN2c1cncc(OCc2ccc(OC(F)(F)F)cc2)c1 [Example 36]
13,120,O=C(O)CCC1CCN(c2cncc(OCc3ccc(OC(F)(F)F)cc3)c2)C1 (stereo not drawn) [Example 98]
14,50,O=C(O)CCCC1CCN(c2cncc(OCc3ccc(OC(F)(F)F)cc3)c2)C1 (stereo not drawn) [Example 99]
15,13,"O=C(O)COC[C@H]1CCCN1c1cncc(OCc2ccc(OC(F)(F)F)cc2)c1 [Example 24, {[(2R)-1-(5-{[4-(trifluoromethoxy)benzyl]oxy}pyridin-3-yl)pyrrolidin-2-yl]methoxy}acetic Acid]"
16,25,"O=C(O)[C@@H]1C[C@H]1c1cc(-c2cncc(OCc3ccc(OC(F)(F)F)cc3)c2)ccn1 [Example 11-2, (1R,2R)-2-(5-{[4-(trifluoromethoxy)benzyl]oxy}-3,4′-bipyridin-2′-yl)cyclopropanecarboxylic Acid]"
17,32,O=C(O)CCCC1CN(c2cncc(OCc3ccc(OC(F)(F)F)cc3)c2)CCO1 (stereo not drawn) [Example 94]
18,204,O=C(O)CCC1CCCN1c1cncc(OCc2ccc(OC(F)(F)F)cc2)c1 (stereo not drawn) [Example 100]
19,36,O=C(O)CCCC1COCCN1c1cncc(OCc2ccc(OC(F)(F)F)cc2)c1 (stereo not drawn) [Example 95]
20,13,O=C(O)c1cccc(C2CN(c3cncc(OCc4ccc(OC(F)(F)F)cc4)c3)CCO2)c1 (stereo not drawn) [Example 43]
21,1,COc1cc(C2CN(c3cncc(OC[C@H]4CC[C@H](C(F)(F)F)CC4)c3)CCO2)cnc1C(=O)O (stereo partly drawn) [Example 53]
22,19,O=C(O)COC[C@@H]1CCCN1c1cncc(OCc2ccc(OC(F)(F)F)cc2)c1 [Example 96]
